Reference: patent US20260232767A1, “INTERLEUKIN-23 RECEPTOR ANTAGONIST PEPTIDES FOR USE IN THE TREATMENT OF PSORIASIS” (Janssen Pharmaceutica NV, priority 2023, published 2026)

System: subjects with moderate-to-severe plaque psoriasis
Assay: IGA score, Example 1
Assay type: in vivo, human
Settings: Week 16
Experimental: The Investigator's Global Assessment (IGA) documents the investigator's assessment of the participant's psoriasis at a given time point. Overall lesions are graded for induration, erythema, and scaling. The participant's psoriasis is assessed as cleared (0), minimal (1), mild (2), moderate (3), or severe (4).
This was a randomized, double-blind, placebo-controlled, dose-ranging, parallel group, multicenter, interventional study in subjects with moderate-to-severe plaque psoriasis. A target of 240 subjects were enrolled in this study with 40 subjects planned per intervention group.
Clinician-reported outcomes including Psoriasis Area and Severity Index (PASI), Body Surface Area (BSA), Investigator's Global Assessment (IGA), Nail Psoriasis Area and Severity Index (NAPSI), Fingernail Physician's Global Assessment (f-PGA), Static Physician's Global Assessment of Genitalia (s-PGA-G), Physician's Global Assessment of Hands and/or Feet (hf-PGA), and Scalp Specific Investigator Global Assessment (ss-IGA) were obtained at Week 0, 8, and 16. PASI and IGA were also obtained at Weeks 1, 2, 4, and 12, and at Week 20, four weeks after the administration of the tablets has stopped.

[1] = 25 mg BID, peak plasma conc. <Q1, N=2
[2] = 25 mg BID, peak plasma conc. Q1 to <Q2, N=2
[3] = 25 mg BID, peak plasma conc. Q2 to <Q3, N=2
[4] = 25 mg BID, peak plasma conc. ≥Q3, N=2
[5] = 25 mg BID, trough plasma conc <Q1
[6] = 25 mg BID, trough plasma conc Q1 to <Q2
[7] = 25 mg BID, trough plasma conc Q2 to <Q3
[8] = 25 mg BID, trough plasma conc ≥Q3
[9] = 25 mg QD, peak plasma conc. <Q1, N=2
[10] = 25 mg QD, peak plasma conc. Q1 to <Q2, N=2
[11] = 25 mg QD, peak plasma conc. Q2 to <Q3, N=2
[12] = 25 mg QD, peak plasma conc. ≥Q3, N=2
[13] = 25 mg QD, trough plasma conc <Q1
[14] = 25 mg QD, trough plasma conc Q1 to <Q2
[15] = 25 mg QD, trough plasma conc Q2 to <Q3
[16] = 25 mg QD, trough plasma conc ≥Q3
[17] = 50 mg QD, peak plasma conc. <Q1, N=2
[18] = 50 mg QD, peak plasma conc. Q1 to <Q2, N=2
[19] = 50 mg QD, peak plasma conc. Q2 to <Q3, N=2
[20] = 50 mg QD, peak plasma conc. ≥Q3, N=2
[21] = 50 mg QD, trough plasma conc <Q1
[22] = 50 mg QD, trough plasma conc Q1 to <Q2
[23] = 50 mg QD, trough plasma conc Q2 to <Q3
[24] = 50 mg QD, trough plasma conc ≥Q3
[25] = 100 mg BID, peak plasma conc. <Q1, N=2
[26] = 100 mg BID, peak plasma conc. Q1 to <Q2, N=3
[27] = 100 mg BID, peak plasma conc. Q2 to <Q3, N=2
[28] = 100 mg BID, peak plasma conc. ≥Q3, N=3
[29] = 100 mg BID, trough plasma conc <Q1

## CC(=O)NCCCC[C@@H]1NC(=O)[C@H](Cc2c[nH]c3c(C)cccc23)NC(=O)[C@H]([C@@H](C)O)NC(=O)[C@H](CC(N)=O)NC(=O)[C@@H](NC(C)=O)C(C)(C)SSC(C)(C)[C@@H](C(=O)N[C@@H](Cc2ccc(OCCN)cc2)C(=O)N[C@@H](Cc2ccc3ccccc3c2)C(=O)NC2(C(=O)N[C@@H](CCC(=O)O)C(=O)N[C@@H](CC(N)=O)C(=O)N[C@@H](Cc3cccnc3)C(=O)N(C)CC(N)=O)CCOCC2)NC1=O [IL-23 receptor antagonist peptide, Ac-[Pen]*-N-T-[W(7-Me)]-[Lys(Ac)]-[Pen]*-Phe[4-(2-aminoethoxy)]-[2-Nal]-[THP]-E-N-[3-Pal]-Sarc-NH2 (*[Pen]-[Pen]* formdisulfidebond)]
25 mg BID
  IGA 0 or 1 treatment difference vs placebo: 39.5% (21.7%,
  IGA 0 treatment difference vs placebo: 14.6% (4.0%,
  Subjects achieving IGA Score = 0: (14.6%)
  Subjects achieving IGA Score = 0 or 1: (51.2%)
25 mg BID, N=41
  IGA score 0, %: (14.6) %
  IGA score 0/1, %: (51.2) %
[1]
  IGA Score = 0, n subjects: 0
  IGA Score = 0 or 1, n subjects: 0
[2]
  IGA Score = 0, n subjects: 0
  IGA Score = 0 or 1, % subjects: (50.0%)
  IGA Score = 0 or 1, n subjects: 1
[3]
  IGA Score = 0, n subjects: 0
  IGA Score = 0 or 1, % subjects: (50.0%)
  IGA Score = 0 or 1, n subjects: 1
[4]
  IGA Score = 0, % subjects: (50.0%)
  IGA Score = 0, n subjects: 1
  IGA Score = 0 or 1, % subjects: (50.0%)
  IGA Score = 0 or 1, n subjects: 1
[5]
  IGA Score = 0, subjects: 2 (33.3%)
  IGA Score = 0 or 1, subjects: 4 (66.7%)
[6]
  IGA Score = 0, subjects: 1 (16.7%)
  IGA Score = 0 or 1, subjects: 1 (16.7%)
[7]
  IGA Score = 0, subjects: 0
  IGA Score = 0 or 1, subjects: 4 (66.7%)
[8]
  IGA Score = 0, subjects: 2 (33.3%)
  IGA Score = 0 or 1, subjects: 100.0%
25 mg QD
  IGA 0 or 1 treatment difference vs placebo: 27.9% (10.5%,
  IGA 0 treatment difference vs placebo: 16.3% (5.3%,
  Subjects achieving IGA Score = 0: (16.3%)
  Subjects achieving IGA Score = 0 or 1: (39.5%)
25 mg QD, N=43
  IGA score 0, %: (16.3) %
  IGA score 0/1, %: (39.5) %
[9]
  IGA Score = 0, n subjects: 0
  IGA Score = 0 or 1, % subjects: (50.0%)
  IGA Score = 0 or 1, n subjects: 1
[10]
  IGA Score = 0, n subjects: 0
  IGA Score = 0 or 1, % subjects: (50.0%)
  IGA Score = 0 or 1, n subjects: 1
[11]
  IGA Score = 0, % subjects: (50.0%)
  IGA Score = 0, n subjects: 1
  IGA Score = 0 or 1, % subjects: (50.0%)
  IGA Score = 0 or 1, n subjects: 1
[12]
  IGA Score = 0, n subjects: 0
  IGA Score = 0 or 1, % subjects: (50.0%)
  IGA Score = 0 or 1, n subjects: 1
[13]
  IGA Score = 0, subjects: 1 (20.0%)
  IGA Score = 0 or 1, subjects: 2 (40.0%)
[14]
  IGA Score = 0, subjects: 2 (33.3%)
  IGA Score = 0 or 1, subjects: 3 (50.0%)
[15]
  IGA Score = 0, subjects: 0
  IGA Score = 0 or 1, subjects: 1 (20.0%)
[16]
  IGA Score = 0, subjects: 1 (16.7%)
  IGA Score = 0 or 1, subjects: 4 (66.7%)
50 mg QD
  IGA 0 or 1 treatment difference vs placebo: 46.5% (29.1%,
  IGA 0 treatment difference vs placebo: 34.9% (20.8%,
  Subjects achieving IGA Score = 0: 15 (34.9%)
  Subjects achieving IGA Score = 0 or 1: 25 (58.1%)
50 mg QD, N=43
  IGA score 0, %: 34.9%
  IGA score 0/1, %: 58.1%
[17]
  IGA Score = 0, n subjects: 0
  IGA Score = 0 or 1, n subjects: 0
[18]
  IGA Score = 0, % subjects: (100.0%)
  IGA Score = 0, n subjects: 2
  IGA Score = 0 or 1, % subjects: (100.0%)
  IGA Score = 0 or 1, n subjects: 2
[19]
  IGA Score = 0, n subjects: 0
  IGA Score = 0 or 1, % subjects: (100.0%)
  IGA Score = 0 or 1, n subjects: 2
[20]
  IGA Score = 0, n subjects: 0
  IGA Score = 0 or 1, % subjects: (100.0%)
  IGA Score = 0 or 1, n subjects: 2
[21]
  IGA Score = 0, subjects: 1 (20.0%)
  IGA Score = 0 or 1, subjects: 2 (40.0%)
[22]
  IGA Score = 0, subjects: 3 (60.0%)
  IGA Score = 0 or 1, subjects: 4 (80.0%)
[23]
  IGA Score = 0, subjects: 2 (40.0%)
  IGA Score = 0 or 1, subjects: 2 (40.0%)
[24]
  IGA Score = 0, subjects: 2 (40.0%)
  IGA Score = 0 or 1, subjects: 3 (60.0%)
100 mg BID
  IGA 0 or 1 treatment difference vs placebo: 52.8% (36.0%,
  IGA 0 treatment difference vs placebo: 45.3% (30.6%,
  Subjects achieving IGA Score = 0: (45.2%)
  Subjects achieving IGA Score = 0 or 1: (64.3%)
100 mg BID, N=42
  IGA score 0, %: 45.2%
  IGA score 0/1, %: 64.3%
[25]
  IGA Score = 0, % subjects: (50.0%)
  IGA Score = 0, n subjects: 1
  IGA Score = 0 or 1, % subjects: (100.0%)
  IGA Score = 0 or 1, n subjects: 2
[26]
  IGA Score = 0, % subjects: (66.7%)
  IGA Score = 0, n subjects: 2
  IGA Score = 0 or 1, % subjects: (66.7%)
  IGA Score = 0 or 1, n subjects: 2
[27]
  IGA Score = 0, % subjects: (50.0%)
  IGA Score = 0, n subjects: 1
  IGA Score = 0 or 1, % subjects: (50.0%)
  IGA Score = 0 or 1, n subjects: 1
[28]
  IGA Score = 0, % subjects: (66.7%)
  IGA Score = 0, n subjects: 2
  IGA Score = 0 or 1, % subjects: (100.0%)
  IGA Score = 0 or 1, n subjects: 3
[29]
  IGA Score = 0, subjects: 1 (25.0%)
  IGA Score = 0 or 1, subjects: 3 (75.0%)
100 mg BID, trough plasma conc Q1 to <Q2
  IGA Score = 0, subjects: 2 (40.0%)
